# In paper PMC6261293 (European journal of medicinal chemistry, 2018):
# How the values were obtained:
# [1] = system: NF-κB/AP-1 reporter activity in THP-1Blue cells; experiment: LPS-induced NF-κB/AP-1 alkaline phosphatase reporter assay; type: cell-based, human; settings: for inhibition of LPS-induced NF-κB/AP-1 activity: concentrations up to 50 µM
# [2] = system: IL-6 production by MonoMac-6 cells; experiment: LPS-induced IL-6 production; type: cell-based, human; settings: for inhibition of LPS-induced IL-6 production: concentrations up to 50 µM; for IL-6 IC50: MonoMac-6 cells, 250 ng/ml LPS, 24 h, N.A. = no inhibition at concentrations <40 µM
# [3] = system: c-Jun phosphorylation in MonoMac-6 cells; experiment: c-Jun; type: cell-based, human; settings: 30 min pretreatment, LPS 250 ng/ml 30 min
# [4] = target: TRKA (Homo sapiens, UniProt P04629); settings: ref [29], [30]; cited from earlier work
# TRKA, sequence (P04629 33-796): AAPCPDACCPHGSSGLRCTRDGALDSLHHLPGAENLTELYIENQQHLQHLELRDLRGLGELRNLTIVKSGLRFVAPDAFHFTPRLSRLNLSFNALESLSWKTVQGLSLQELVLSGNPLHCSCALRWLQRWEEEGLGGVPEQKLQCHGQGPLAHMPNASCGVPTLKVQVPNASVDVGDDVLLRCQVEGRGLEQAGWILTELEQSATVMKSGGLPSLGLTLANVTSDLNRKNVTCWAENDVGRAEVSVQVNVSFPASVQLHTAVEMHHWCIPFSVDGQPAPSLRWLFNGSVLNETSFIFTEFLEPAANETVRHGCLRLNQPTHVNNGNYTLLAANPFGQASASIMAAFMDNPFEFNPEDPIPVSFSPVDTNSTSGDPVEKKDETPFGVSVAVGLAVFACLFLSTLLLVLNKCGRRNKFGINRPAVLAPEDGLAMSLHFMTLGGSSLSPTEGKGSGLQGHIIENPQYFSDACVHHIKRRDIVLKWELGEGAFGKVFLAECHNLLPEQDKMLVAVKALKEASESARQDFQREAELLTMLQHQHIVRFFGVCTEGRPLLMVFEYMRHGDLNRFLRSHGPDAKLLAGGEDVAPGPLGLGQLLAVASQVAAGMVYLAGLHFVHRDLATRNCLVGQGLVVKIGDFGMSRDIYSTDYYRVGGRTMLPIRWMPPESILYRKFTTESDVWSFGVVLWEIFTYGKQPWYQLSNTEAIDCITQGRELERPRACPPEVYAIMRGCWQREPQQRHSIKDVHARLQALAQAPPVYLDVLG
# [5] = Solubility in DMSO; type: physicochemical; settings: organic solvent or mixture
# [6] = target: JNK2 (Homo sapiens, UniProt P45984); experiment: KINOMEscan competition binding, JNK2; settings: N.A. = no inhibition at concentrations <40 µM
# JNK2, sequence (P45984 whole entry): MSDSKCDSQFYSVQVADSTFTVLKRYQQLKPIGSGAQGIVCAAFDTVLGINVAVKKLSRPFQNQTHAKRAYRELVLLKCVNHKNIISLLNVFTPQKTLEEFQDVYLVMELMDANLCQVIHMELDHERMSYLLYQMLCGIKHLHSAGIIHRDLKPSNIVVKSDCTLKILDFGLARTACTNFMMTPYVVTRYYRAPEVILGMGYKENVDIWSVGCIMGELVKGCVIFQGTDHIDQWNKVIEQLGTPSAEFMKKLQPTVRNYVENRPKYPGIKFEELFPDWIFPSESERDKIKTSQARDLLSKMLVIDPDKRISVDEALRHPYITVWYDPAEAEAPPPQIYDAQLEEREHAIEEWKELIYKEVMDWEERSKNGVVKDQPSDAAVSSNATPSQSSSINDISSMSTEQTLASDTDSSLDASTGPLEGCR
# [7] = target: JNK3 (Homo sapiens, UniProt P53779); experiment: KINOMEscan competition binding, JNK3; settings: N.A. = no inhibition at concentrations <40 µM
# JNK3, sequence (P53779 whole entry): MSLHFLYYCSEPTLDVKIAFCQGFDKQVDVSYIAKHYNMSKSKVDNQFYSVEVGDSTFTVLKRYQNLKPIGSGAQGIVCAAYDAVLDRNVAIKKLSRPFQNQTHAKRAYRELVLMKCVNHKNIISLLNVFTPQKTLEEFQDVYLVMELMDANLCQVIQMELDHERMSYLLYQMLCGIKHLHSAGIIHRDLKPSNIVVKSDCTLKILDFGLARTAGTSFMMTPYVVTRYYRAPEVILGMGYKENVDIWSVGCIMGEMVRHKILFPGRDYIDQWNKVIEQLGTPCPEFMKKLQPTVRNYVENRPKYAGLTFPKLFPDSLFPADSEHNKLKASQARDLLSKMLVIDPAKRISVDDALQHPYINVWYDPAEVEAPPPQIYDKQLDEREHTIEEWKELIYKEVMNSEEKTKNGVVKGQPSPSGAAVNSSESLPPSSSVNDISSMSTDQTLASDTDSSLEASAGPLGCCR
# [8] = THP-1Blue cells, 250 ng/ml LPS, 24 h, N.A. = no inhibition at concentrations <40 µM
compound,measurement,setting,value
"O=C1c2ccccc2-c2nc3ncccc3nc21 [3a, 6H-Indeno[1,2-b]pyrido[3,2-e]pyrazin-6-one]",inhibition of LPS-induced NF-κB/AP-1 activity,[1],did not inhibit
same,inhibition of LPS-induced IL-6 production,[2],did not inhibit
"[Na+].[O-]/N=C1/c2ccccc2-c2nc3c(Cl)cc(Cl)cc3nc21 [6b, 6,8-Dichloro-11H-indeno[2,3-b]quinoxalin-11-one oxime]",NF-κB/AP-1 IC50,[1]; [8],did not inhibit
same,IL-6 IC50,[2],did not inhibit
"[Na+].[O-]/N=C1/c2ccccc2-c2nc3ccc(C(F)(F)F)cc3nc21 [6h, 8-Trifluoromethyl-11H-indeno[2,3-b]quinoxalin-11-one oxime]",NF-κB/AP-1 IC50,[1]; [8],did not inhibit
same,IL-6 IC50,[2],did not inhibit
"CCOC(=O)CO/N=C1\c2ccccc2-c2nc3ccccc3nc21 [10c, 11H-Indeno[1,2-b]quinoxalin-11-one O-(O-ethylcarboxymethyl) oxime]",inhibition of c-Jun phosphorylation,[3],inhibited c-Jun phosphorylation
"O/N=C1\c2ccccc2-c2nc3ccccc3nc21 [IQ-1, 11H-indeno[1,2-b]quinoxalin-11-one oxime]",binding to TRK-A,[4],did not bind
same,solubility,[5],~10 mM
O=C(O/N=C1\c2ccccc2-c2nc3ccccc3nc21)c1ccco1 [IQ-3],binding to TRK-A,[4],did not bind
"O=C1c2ccccc2-n2c1nc1ccccc1c2=O [Trp, tryptanthrin, reference compound]",inhibition of LPS-induced NF-κB/AP-1 activity,[1],did not inhibit
same,JNK2 Kd,[6],inactive
same,inhibition of LPS-induced IL-6 production,[2],did not inhibit
same,JNK3 Kd,[7],inactive
"O=C1c2ccccc2-c2nc3ccncc3nc21 [compound 5, 10H-Indeno[1,2-b]pyrido[3,4-e]pyrazin-10-one]",inhibition of LPS-induced NF-κB/AP-1 activity,[1],did not inhibit
same,inhibition of LPS-induced IL-6 production,[2],did not inhibit
"anthra[1–9-cd]pyrazol-6(2H)-one [SP600125, reference compound]",IC50,"[1]; read-out: NF-κB/AP-1 IC50, THP-1Blue cells, 250 ng/ml LPS, 24 h, N.A. = no inhibition at concentrations <40 µM",3.4 ± 0.5 µM
